In ChEMBL document CHEMBL2311283, “Structural modifications to tetrahydropyridine-3-carboxylate esters en route to the discovery of M5-preferring muscarinic receptor orthosteric antagonists” (J Med Chem, 2013) one finds Ki and Ratio Ki data, which are given here for 27 compounds.

pKi: −log10 of the molar value.

Test [1] has as its target T1, Muscarinic acetylcholine receptor M1 (Homo sapiens, UniProt P11229).
T1 sequence (P11229 whole entry): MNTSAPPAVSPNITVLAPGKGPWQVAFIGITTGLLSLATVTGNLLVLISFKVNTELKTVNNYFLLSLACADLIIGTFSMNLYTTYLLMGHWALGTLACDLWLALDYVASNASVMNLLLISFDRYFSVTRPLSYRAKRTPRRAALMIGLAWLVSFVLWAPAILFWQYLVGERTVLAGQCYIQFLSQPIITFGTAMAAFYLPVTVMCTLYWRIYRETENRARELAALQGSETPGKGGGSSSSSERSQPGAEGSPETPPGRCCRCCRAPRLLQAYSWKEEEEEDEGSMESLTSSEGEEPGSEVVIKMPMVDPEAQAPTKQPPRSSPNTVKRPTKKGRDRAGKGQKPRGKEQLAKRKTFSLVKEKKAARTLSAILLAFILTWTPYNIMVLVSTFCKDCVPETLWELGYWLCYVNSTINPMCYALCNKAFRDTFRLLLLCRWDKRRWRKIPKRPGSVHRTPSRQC
The experiment in a line: biochemical. Type of test: cell-based, CHO-K1.

In test [2] the target is T2, Muscarinic acetylcholine receptor M5 (Homo sapiens, UniProt P08912).
T2 sequence (P08912 whole entry): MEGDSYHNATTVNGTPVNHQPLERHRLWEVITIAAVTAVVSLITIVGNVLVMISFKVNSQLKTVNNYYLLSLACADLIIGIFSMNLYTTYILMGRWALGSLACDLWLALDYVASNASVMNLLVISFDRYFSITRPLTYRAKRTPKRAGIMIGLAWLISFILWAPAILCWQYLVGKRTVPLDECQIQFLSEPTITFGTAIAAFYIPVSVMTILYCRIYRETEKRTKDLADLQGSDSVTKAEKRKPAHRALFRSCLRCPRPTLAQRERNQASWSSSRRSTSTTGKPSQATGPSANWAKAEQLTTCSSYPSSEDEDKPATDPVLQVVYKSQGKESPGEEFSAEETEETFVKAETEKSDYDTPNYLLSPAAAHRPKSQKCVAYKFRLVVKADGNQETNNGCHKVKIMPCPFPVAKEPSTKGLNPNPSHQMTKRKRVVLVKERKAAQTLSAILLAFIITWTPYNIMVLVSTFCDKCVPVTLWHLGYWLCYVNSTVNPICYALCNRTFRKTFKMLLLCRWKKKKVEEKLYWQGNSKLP
As to the kind of experiment: Displacement of [3H]NMS from human M5 muscarinic receptor expressed in CHO-K1 cells. It is filed as cell-based. On the technique in general: Loss of bound radioactivity is the signal in a displacement assay; it reports binding, not function.

For the next test, the species on record is Homo sapiens. The experiment in a line: Selectivity index, ratio of Ki for human M1 muscarinic receptor to Ki for human M5 muscarinic receptor.

In general, pKi refers to −log10 of the Ki, conventionally taken in molar units. A high value points to a small Ki. Consider `COc1cccc(C2=C(C(=O)OCCc3ccc(OC)c(OC)c3)CN(C)CC2)c1`, for which the negative logarithm of the Ki (pKi) in test [1] and in test [2] was under 4.00 throughout.
For the compound `COc1ccc(CCOC(=O)C2=C(c3ccccc3OC)CCN(C)C2)cc1OC`, the pKi in test [1] and in test [2] was under 4.00 each time.
For the compound `CCOC(=O)C1=C(c2ccccc2)CCN(CCc2ccc3c(c2)OCO3)C1`, the pKi in test [1] and in test [2] was under 4.00 each time.
Regarding `CCN1CCC(c2ccccc2)=C(C(=O)OCc2ccc(OC)cc2)C1`, the Ratio Ki in the test listed under Homo sapiens is 0.8. The figures for the pKi in test [1] and in test [2] were 5.51 and 5.44, respectively.
For the compound `CCCCN1CCC(c2ccccc2)=C(C(=O)OCCc2ccc(OC)cc2)C1`, the pKi in test [1] and in test [2] was under 4.00 each time.
Regarding `CCCN1CCC(c2ccccc2)=C(C(=O)OCCc2ccc(OC)cc2)C1`, the negative-log Ki (pKi) in test [1] and in test [2] was under 4.00 each time.
On to `COc1ccccc1C1=C(C(=O)OCCc2ccc3c(c2)CCO3)CN(C)CC1`, for which the Ratio Ki in the test listed under Homo sapiens was found to be 3.5. Besides, the negative-log Ki (pKi) was 5.08 in test [1] and 5.62 in test [2].
For `COc1ccc(CCOC(=O)C2=C(c3ccccc3F)CCN(C)C2)cc1OC`, the negative-log Ki (pKi) in test [1] and in test [2] was under 4.00 throughout.
`CCN1CCC(c2ccccc2)=C(C(=O)O[C@@H](C)Cc2ccc(OC)cc2)C1`: the pKi in test [1] and in test [2] was under 4.00 throughout.
Take `CCCCN1CCC(c2ccccc2)=C(C(=O)OCCc2ccc3c(c2)CCO3)C1`: the pKi in test [1] and in test [2] was under 4.00 throughout.
With `CCN1CCC(c2ccccc2)=C(C(=O)OCCc2ccc(S(C)(=O)=O)cc2)C1`, the pKi in test [1] and in test [2] was under 4.00 in each case.
For `COc1cccc(C2=C(C(=O)OCCc3ccc4c(c3)CCO4)CN(C)CC2)c1`, in the test filed under Homo sapiens, the Ratio Ki turned out to be 0.9. For the same compound, the pKi in test [1] is 5.61; in test [2] it was 5.57.
In the case of `CN1CC=C(c2ccccc2C(=O)OCCc2ccc3c(c2)CCO3)CC1`, the pKi in test [1] and in test [2] was under 4.00 each time.
Turning to `COc1ccc(CCOC(=O)C2=C(c3ccccc3)CCN(Cc3ccc(OC)cc3)C2)cc1`, the pKi in test [1] and in test [2] was under 4.00 throughout.
With `CCOC(=O)C1=C(c2ccccc2)CCN(C2CCN(S(=O)(=O)c3ccc(C)cc3)CC2)C1`, the pKi in test [1] and in test [2] was under 4.00 in each case.
For the compound `COc1ccc(CCOC(=O)C2=C(c3ccccc3)CN(C)CC2)cc1OC`, the negative-log Ki (pKi) was 5.21 in test [1] and 5.58 in test [2].
Regarding `CCOC(=O)C1=C(c2ccccc2)CCN(CCc2ccc(OC)cc2)C1`, the pKi in test [1] and in test [2] was under 4.00 throughout.
Turning to `CCOC(=O)C1=C(c2ccccc2)CCN(CCc2ccccc2)C1`, the pKi in test [1] and in test [2] was under 4.00 each time.
As for `CCOC(=O)C1=C(c2ccccc2)CCN(CCc2ccc3c(c2)CCO3)C1`, the pKi in test [1] and in test [2] was under 4.00 in each case.
Turning to `CN1CCC(c2cccc(F)c2)=C(C(=O)OCCc2ccc3c(c2)CCO3)C1`, the pKi in test [1] and in test [2] was under 4.00 in each case.
As for `CN1CCC(C(=O)OCCc2ccc3c(c2)CCO3)=C(c2ccccc2)C1`, the figures for the pKi in test [1] and in test [2] were 6.68 and 5.94, respectively.
Turning to `CN1CCC(c2ccccc2)=C(C(=O)OCc2ccc3c(c2)CCO3)C1`, the negative-log Ki (pKi) in test [1] and in test [2] was under 4.00 in each case.
Consider `CCCN1CCC(c2ccccc2)=C(C(=O)OCCc2ccc3c(c2)CCO3)C1`, for which the pKi in test [1] and in test [2] was under 4.00 in each case.
Consider `CCN1CCC(c2ccccc2)=C(C(=O)OCCc2cc(OC)c(OC)c(OC)c2)C1`, for which the pKi in test [1] and in test [2] was under 4.00 in each case.
As to `CCOC(=O)C1=C(c2ccccc2)CCN(C2CCN(C(=O)c3c(C)cccc3C)CC2)C1`, the pKi in test [1] and in test [2] was under 4.00 throughout.
Regarding `COC(COC(=O)C1=C(c2ccccc2)CCN(C)C1)c1ccccc1` (configuration not stated), the pKi in test [1] and in test [2] was under 4.00 in each case.
Regarding `CCOC(=O)C1=C(c2ccccc2)CCN(C2CCN(C(=O)c3c(Cl)cccc3Cl)CC2)C1`, the pKi in test [1] and in test [2] was under 4.00 each time.
